Measured values published in the supplement of paper PMC10307832.

Columns and labels:
Assay in all cases: relative viability (nuclei count vs DMSO), 5 days (fraction); higher = more cells survive
[1] = compound: CC(C)C[C@H](NC(=O)[C@H](CCc1ccccc1)NC(=O)CN1CCOCC1)C(=O)N[C@@H](Cc1ccccc1)C(=O)N[C@@H](CC(C)C)C(=O)[C@@]1(C)CO1 [Carfilzomib] + CS(=O)(=O)CCNCc1ccc(-c2ccc3ncnc(Nc4ccc(OCc5cccc(F)c5)c(Cl)c4)c3c2)o1 [Lapatinib] (partner 2 µM)
Method in brief: (§1)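 Lung cancer cell lines were seeded in 1536-well plates and dosed by pin tool the next day, with either a single drug or a fixed anchor-drug dose combined with five library-drug doses (not always all listed) spaced in √10 steps. Five days later, one step fixed the cells and stained their nuclei (final 0.05% Triton X-100, 1% formaldehyde, 1 ug/ml Hoechst), and nuclei were counted on 4× images. Relative viability is the nuclei count in treated wells divided by the count in vehicle wells, and each value is the median of duplicate plates.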

[2] = compound: C[C@@H](Oc1cc(-c2cnn(C3CCNCC3)c2)cnc1N)c1c(Cl)ccc(F)c1Cl [Crizotinib] + COc1cccc2cc(-c3nc([C@H]4CC[C@H](C(=O)O)CC4)n4ncnc(N)c34)[nH]c12 [OSI-027] (partner 0.5 µM)
Method in brief: as §1

[3] = compound: C[C@@H](Oc1cc(-c2cnn(C3CCNCC3)c2)cnc1N)c1c(Cl)ccc(F)c1Cl [Crizotinib] + CS(=O)(=O)CCNCc1ccc(-c2ccc3ncnc(Nc4ccc(OCc5cccc(F)c5)c(Cl)c4)c3c2)o1 [Lapatinib] (partner 2 µM)
Method in brief: as §1

[4] = compound: O=C(c1cc(Cc2n[nH]c(=O)c3ccccc23)ccc1F)N1CCN(C(=O)C2CC2)CC1 [Olaparib] + O=C(CCCCCCC(=O)Nc1ccccc1)NO [Vorinostat] (partner 1 µM)
Method in brief: as §1

NCI-H2126 showed a relative viability ([1]; first compound 0.001 µM) of 0.75, a relative viability ([1]; first compound 0.003162 µM) of 0.798 and a relative viability ([1]; first compound 0.01 µM) of 0.784. The relative viability ([1]; first compound 0.03162 µM) was 0.765, the relative viability ([1]; first compound 0.1 µM) was 0.513 and the relative viability ([2]; first compound 0.01 µM) was 0.638. The relative viability ([2]; first compound 0.03162 µM) was 0.7, the relative viability ([2]; first compound 0.1 µM) was 0.714 and the relative viability ([2]; first compound 0.3162 µM) was 0.654. The relative viability ([2]; first compound 1 µM) was 0.621, the relative viability ([3]; first compound 0.01 µM) was 0.701 and the relative viability ([3]; first compound 0.03162 µM) was 0.763. It also gave a relative viability ([3]; first compound 0.1 µM) of 0.765, a relative viability ([3]; first compound 0.3162 µM) of 0.763 and a relative viability ([3]; first compound 1 µM) of 0.727. For the same cell line, the relative viability ([4]; first compound 0.08 µM) was 0.803, the relative viability ([4]; first compound 0.253 µM) was 0.773 and the relative viability ([4]; first compound 2.53 µM) was 0.819. It also gave a relative viability ([4]; first compound 8 µM) of 0.777.

In the case of NCI-H2170, the relative viability ([1]; first compound 0.001 µM) is reported as 0.264, the relative viability ([1]; first compound 0.003162 µM) is reported as 0.263 and the relative viability ([1]; first compound 0.01 µM) is reported as 0.269. The relative viability ([1]; first compound 0.03162 µM) was 0.312, the relative viability ([1]; first compound 0.1 µM) was 0.207 and the relative viability ([2]; first compound 0.01 µM) was 0.775. It also gave a relative viability ([2]; first compound 0.03162 µM) of 0.839, a relative viability ([2]; first compound 0.1 µM) of 0.741 and a relative viability ([2]; first compound 0.3162 µM) of 0.573. For the same cell line, the relative viability ([2]; first compound 1 µM) was 0.691, the relative viability ([3]; first compound 0.01 µM) was 0.274 and the relative viability ([3]; first compound 0.03162 µM) was 0.283. The relative viability ([3]; first compound 0.1 µM) was 0.261, the relative viability ([3]; first compound 0.3162 µM) was 0.243 and the relative viability ([3]; first compound 1 µM) was 0.241. It also gave a relative viability ([4]; first compound 0.08 µM) of 0.811, a relative viability ([4]; first compound 0.253 µM) of 0.754 and a relative viability ([4]; first compound 2.53 µM) of 0.748. The relative viability ([4]; first compound 8 µM) was 0.748.

In the case of NCI-H2228, the relative viability ([1]; first compound 0.001 µM) is reported as 1.28, the relative viability ([1]; first compound 0.003162 µM) is reported as 1.23 and the relative viability ([1]; first compound 0.01 µM) is reported as 0.752. For the same cell line, the relative viability ([1]; first compound 0.03162 µM) was 0.104, the relative viability ([1]; first compound 0.1 µM) was 0.161 and the relative viability ([2]; first compound 0.01 µM) was 0.607. For the same cell line, the relative viability ([2]; first compound 0.03162 µM) was 0.563, the relative viability ([2]; first compound 0.1 µM) was 0.54 and the relative viability ([2]; first compound 0.3162 µM) was 0.272. It also gave a relative viability ([2]; first compound 1 µM) of 0.164, a relative viability ([3]; first compound 0.01 µM) of 0.814 and a relative viability ([3]; first compound 0.03162 µM) of 0.827. For the same cell line, the relative viability ([3]; first compound 0.1 µM) was 1.06, the relative viability ([3]; first compound 0.3162 µM) was 0.488 and the relative viability ([3]; first compound 1 µM) was 0.412. The relative viability ([4]; first compound 0.08 µM) was 0.587, the relative viability ([4]; first compound 0.253 µM) was 0.541 and the relative viability ([4]; first compound 2.53 µM) was 0.742. For the same cell line, the relative viability ([4]; first compound 8 µM) was 0.449.

For NCI-H2347, the relative viability ([1]; first compound 0.001 µM) was 0.976, the relative viability ([1]; first compound 0.003162 µM) was 1.09 and the relative viability ([1]; first compound 0.01 µM) was 0.979. For the same cell line, the relative viability ([1]; first compound 0.03162 µM) was 0.306, the relative viability ([1]; first compound 0.1 µM) was 0.51 and the relative viability ([2]; first compound 0.01 µM) was 0.375. The relative viability ([2]; first compound 0.03162 µM) was 0.324, the relative viability ([2]; first compound 0.1 µM) was 0.417 and the relative viability ([2]; first compound 0.3162 µM) was 0.386. It also gave a relative viability ([2]; first compound 1 µM) of 0.414, a relative viability ([3]; first compound 0.01 µM) of 0.982 and a relative viability ([3]; first compound 0.03162 µM) of 0.902. For the same cell line, the relative viability ([3]; first compound 0.1 µM) was 0.906, the relative viability ([3]; first compound 0.3162 µM) was 0.888 and the relative viability ([3]; first compound 1 µM) was 0.933. For the same cell line, the relative viability ([4]; first compound 0.08 µM) was 0.577, the relative viability ([4]; first compound 0.253 µM) was 0.568 and the relative viability ([4]; first compound 2.53 µM) was 0.588. For the same cell line, the relative viability ([4]; first compound 8 µM) was 0.398.

For NCI-H2405, the relative viability ([1]; first compound 0.003162 µM) was 1.42, the relative viability ([1]; first compound 0.01 µM) was 1.05 and the relative viability ([1]; first compound 0.03162 µM) was 0.645. The relative viability ([1]; first compound 0.1 µM) was 0.152, the relative viability ([2]; first compound 0.01 µM) was 0.636 and the relative viability ([2]; first compound 0.03162 µM) was 0.605. It also gave a relative viability ([2]; first compound 0.1 µM) of 0.587, a relative viability ([2]; first compound 0.3162 µM) of 0.669 and a relative viability ([2]; first compound 1 µM) of 0.593. The relative viability ([3]; first compound 0.01 µM) was 1.05, the relative viability ([3]; first compound 0.03162 µM) was 0.975 and the relative viability ([3]; first compound 0.1 µM) was 0.999. It also gave a relative viability ([3]; first compound 0.3162 µM) of 0.952, a relative viability ([4]; first compound 0.08 µM) of 1.28 and a relative viability ([4]; first compound 0.253 µM) of 0.957. It also gave a relative viability ([4]; first compound 2.53 µM) of 0.997 and a relative viability ([4]; first compound 8 µM) of 0.926.

Cell Line NCI-H3122 has a relative viability ([1]; first compound 0.001 µM) of 1.03, a relative viability ([1]; first compound 0.003162 µM) of 0.942 and a relative viability ([1]; first compound 0.01 µM) of 1.09. For the same cell line, the relative viability ([1]; first compound 0.03162 µM) was 0.978, the relative viability ([1]; first compound 0.1 µM) was 0.806 and the relative viability ([2]; first compound 0.01 µM) was 0.896. For the same cell line, the relative viability ([2]; first compound 0.03162 µM) was 0.909, the relative viability ([2]; first compound 0.1 µM) was 0.79 and the relative viability ([2]; first compound 0.3162 µM) was 0.218. It also gave a relative viability ([2]; first compound 1 µM) of 0.16, a relative viability ([3]; first compound 0.01 µM) of 0.985 and a relative viability ([3]; first compound 0.03162 µM) of 0.891. For the same cell line, the relative viability ([3]; first compound 0.1 µM) was 0.951, the relative viability ([3]; first compound 0.3162 µM) was 0.962 and the relative viability ([3]; first compound 1 µM) was 0.763. It also gave a relative viability ([4]; first compound 0.08 µM) of 1.17, a relative viability ([4]; first compound 0.253 µM) of 0.932 and a relative viability ([4]; first compound 2.53 µM) of 0.986. For the same cell line, the relative viability ([4]; first compound 8 µM) was 0.789.

In the case of PC-3 [JPC-3], the relative viability ([1]; first compound 0.001 µM) is reported as 0.42, the relative viability ([1]; first compound 0.003162 µM) is reported as 0.455 and the relative viability ([1]; first compound 0.01 µM) is reported as 0.463. The relative viability ([1]; first compound 0.03162 µM) was 0.435, the relative viability ([1]; first compound 0.1 µM) was 0.209 and the relative viability ([2]; first compound 0.01 µM) was 0.786. It also gave a relative viability ([2]; first compound 0.03162 µM) of 0.802, a relative viability ([2]; first compound 0.1 µM) of 0.76 and a relative viability ([2]; first compound 0.3162 µM) of 0.683. For the same cell line, the relative viability ([2]; first compound 1 µM) was 0.745, the relative viability ([3]; first compound 0.01 µM) was 0.408 and the relative viability ([3]; first compound 0.03162 µM) was 0.448. It also gave a relative viability ([3]; first compound 0.1 µM) of 0.446, a relative viability ([3]; first compound 0.3162 µM) of 0.422 and a relative viability ([3]; first compound 1 µM) of 0.459. For the same cell line, the relative viability ([4]; first compound 0.08 µM) was 0.923, the relative viability ([4]; first compound 2.53 µM) was 0.943 and the relative viability ([4]; first compound 8 µM) was 0.942.

Cell Line PC-14 has a relative viability ([1]; first compound 0.001 µM) of 0.372, a relative viability ([1]; first compound 0.003162 µM) of 0.301 and a relative viability ([1]; first compound 0.01 µM) of 0.317. For the same cell line, the relative viability ([1]; first compound 0.03162 µM) was 0.301, the relative viability ([1]; first compound 0.1 µM) was 0.0926 and the relative viability ([2]; first compound 0.01 µM) was 0.826. For the same cell line, the relative viability ([2]; first compound 0.03162 µM) was 0.898, the relative viability ([2]; first compound 0.1 µM) was 0.8 and the relative viability ([2]; first compound 0.3162 µM) was 0.867. For the same cell line, the relative viability ([2]; first compound 1 µM) was 1.03, the relative viability ([3]; first compound 0.01 µM) was 0.297 and the relative viability ([3]; first compound 0.03162 µM) was 0.339. It also gave a relative viability ([3]; first compound 0.1 µM) of 0.312, a relative viability ([3]; first compound 0.3162 µM) of 0.304 and a relative viability ([3]; first compound 1 µM) of 0.304. It also gave a relative viability ([4]; first compound 0.08 µM) of 0.889, a relative viability ([4]; first compound 0.253 µM) of 0.579 and a relative viability ([4]; first compound 2.53 µM) of 0.709. For the same cell line, the relative viability ([4]; first compound 8 µM) was 0.34.

Work on RERF-LC-KJ yielded a relative viability ([1]; first compound 0.001 µM) of 0.845, a relative viability ([1]; first compound 0.003162 µM) of 0.836 and a relative viability ([1]; first compound 0.01 µM) of 0.894. For the same cell line, the relative viability ([1]; first compound 0.03162 µM) was 0.841, the relative viability ([1]; first compound 0.1 µM) was 0.378 and the relative viability ([2]; first compound 0.01 µM) was 0.518. It also gave a relative viability ([2]; first compound 0.03162 µM) of 0.619, a relative viability ([2]; first compound 0.1 µM) of 0.521 and a relative viability ([2]; first compound 0.3162 µM) of 0.542. The relative viability ([2]; first compound 1 µM) was 0.612, the relative viability ([3]; first compound 0.01 µM) was 0.801 and the relative viability ([3]; first compound 0.03162 µM) was 0.881. It also gave a relative viability ([3]; first compound 0.1 µM) of 0.853, a relative viability ([3]; first compound 1 µM) of 0.838 and a relative viability ([4]; first compound 0.08 µM) of 0.79. It also gave a relative viability ([4]; first compound 0.253 µM) of 0.644, a relative viability ([4]; first compound 2.53 µM) of 0.748 and a relative viability ([4]; first compound 8 µM) of 0.633.
